pEC50: −log10 of the molar value. Numbered stars: 1 amine (or outer) side, 2 acyl side, 3 side chain; on linkers, the order of the positions; unused ones are H or OH. Square brackets hold non-standard residues; d marks the D form. Peptide text beside a SMILES is read from it. Gly(N-4-hydroxybenzyl) = O=C(O)CNCc1ccc(O)cc1; X1 = CSCCN(CC(=O)[*:2])[*:1]; Nlys = NCCCCNCC(=O)O
Assays:
neutrophils [1] = experiment: Superoxide anion (ROS) production in neutrophils; assay type: cell-based
Protocol: The effect of superoxide anion production in neutrophils by the peptoid-comprising analogs in which a peptoid residue was substituted for K, Y, and M in the structure of WKYMVm was measured.

[2] = Degradation half-life in human liver S9 fraction (HPLC); assay type: in vitro ADME
Protocol: To measure the ex vivo stability of the eight analogs comprising a β^3-amino acid residue, the degradation half-life of each analog was measured in a human liver S9 fraction. The degradation half-life was measured by culturing the peptide and serum together at 37° C. and measuring the degree to which the compound was reduced using HPLC at each hour.
The ex vivo stability of the analogs to which a peptoid residue was introduced was measured using the same method as the stability measurement method for the analogs comprising a β-amino acid residue. […] On the other hand, it was confirmed that K peptoid, KY peptoid, and KM peptoid had very high stability so that more than half of them was not degraded even after 24 hours (FIG. 17).

neutrophils [3] = experiment: Degranulation activity of neutrophils (beta-hexosaminidase activity); assay type: cell-based
Protocol: The degranulation activity of neutrophils by the analogs in which each amino acid in the structure of WKYMVm was substituted with a β-amino acid was compared and analyzed by measuring beta-hexosaminidase activity.
The degranulation activity of neutrophils by the peptoid-containing analogs in which a peptoid residue was substituted for K, Y, and M in the structure of WKYMVm was measured.

FIG. 17 = experiment: FIG. 17
Source text: Table printed on a drawing sheet, FIG. 17

neutrophils [4] = experiment: Neutrophil chemotaxis assay using a Boyden chamber; assay type: cell-based; settings: for chemotactic migration of neutrophils: from 1 nM or 10 nM to 1 μM
Protocol: To investigate the effect of the WKYMVm peptide analogs on the regulation of immune cell mobility, which a representative function of FPR, a chemotaxis assay was performed using a Boyden chamber.
To measure the in vitro innate immune activity of four peptides comprising one non-natural β^3-amino acid residue, the effect of enhancing neutrophil mobility was measured.

FPR1 = FPR1 (Homo sapiens, UniProt P21462); experiment: cell-based; settings: for increase in intracellular calcium ions through activation of FPR1 (in words): FPR1-expressing RBL-2H3 cell line
Protocol: To investigate whether activation of FPR1, which is important in regulating the activity of innate immune cells, is induced by the WKYMVm peptide analogs, changes in calcium ions were measured in RBL-2H3 cell line, a type of mast cell that artificially expressed FPR1. […] On the other hand, an increase in intracellular calcium ions by WKYMVβm (V is a β-amino acid) through activation of FPR1 was not observed.

neutrophils [5] = tested on: neutrophils
FPR2 = FPR2 (Homo sapiens, UniProt P25090); experiment: cell-based; settings: for increase in intracellular calcium ions through activation of FPR2 (in words): FPR2-expressing RBL-2H3 cell line
Protocol: To investigate whether activation of FPR2 is induced by the WKYMVm peptide analogs, changes in calcium ions were measured in RBL-2H3 cell line that artificially expressed FPR2.

【FIG 16】 = experiment: 【FIG 16】
Source text: Table printed on a drawing sheet, 【FIG 16】

[6] = human liver S9 fraction, 37° C., 24-hour measurement period, read-out: degradation half-life
[7] = human liver S9 fraction, 37° C.

Sequence of FPR1 (P21462 whole entry): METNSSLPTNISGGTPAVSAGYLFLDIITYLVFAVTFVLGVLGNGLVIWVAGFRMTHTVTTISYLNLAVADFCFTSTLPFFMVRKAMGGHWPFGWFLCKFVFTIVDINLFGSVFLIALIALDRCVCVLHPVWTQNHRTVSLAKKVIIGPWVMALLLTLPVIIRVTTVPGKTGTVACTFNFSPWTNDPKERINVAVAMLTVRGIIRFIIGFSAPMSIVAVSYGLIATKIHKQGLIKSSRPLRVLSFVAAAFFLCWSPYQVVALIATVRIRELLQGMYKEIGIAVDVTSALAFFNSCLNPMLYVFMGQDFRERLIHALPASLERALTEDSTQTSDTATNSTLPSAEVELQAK
Sequence of FPR2 (P25090 whole entry): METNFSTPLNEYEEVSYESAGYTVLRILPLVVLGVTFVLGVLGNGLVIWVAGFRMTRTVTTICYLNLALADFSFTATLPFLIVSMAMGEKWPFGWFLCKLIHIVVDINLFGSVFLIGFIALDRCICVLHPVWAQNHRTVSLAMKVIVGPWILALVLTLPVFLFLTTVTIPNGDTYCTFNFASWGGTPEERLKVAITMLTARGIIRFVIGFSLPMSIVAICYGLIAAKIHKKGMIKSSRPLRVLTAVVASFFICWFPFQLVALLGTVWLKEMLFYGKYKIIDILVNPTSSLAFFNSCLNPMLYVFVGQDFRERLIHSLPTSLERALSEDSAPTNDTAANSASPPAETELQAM

## CSCC[C@H](NC(=O)[C@H](Cc1ccc(O)cc1)NC(=O)CN(CCCCN)C(=O)[C@@H](N)Cc1c[nH]c2ccccc12)C(=O)N[C@H](C(=O)N[C@H](CCSC)C(N)=O)C(C)C [K peptoid]
Neutrophils [1]
  superoxide anion production in neutrophils: effectively promote superoxide anion production
[2]; [6]
  Half-Life: > 24 h
Neutrophils [3]
  degranulation activity of neutrophils: promoted the degranulation activity of neutrophils to the extent similar to the WKYMVm peptide

## CSCC[C@@H](NC(=O)[C@@H](NC(=O)CN(CCSC)C(=O)[C@H](Cc1ccc(O)cc1)NC(=O)CN(CCCCN)C(=O)[C@@H](N)Cc1c[nH]c2ccccc12)C(C)C)C(N)=O [KM peptoid] (H-W[Nlys]Y[X1]V[dM]-NH2)
[2]; human, s9
  Half-Life: > 24 h

## CSCC[C@H](NC(=O)CN(Cc1ccc(O)cc1)C(=O)CN(CCCCN)C(=O)[C@@H](N)Cc1c[nH]c2ccccc12)C(=O)N[C@H](C(=O)N[C@H](CCSC)C(N)=O)C(C)C [KY peptoid] (H-W[Nlys][Gly(N-4-hydroxybenzyl)]MV[dM]-NH2)
[2]; human, s9
  Half-Life: > 24 h

## CSCC[C@@H](NC(=O)[C@@H](NC(=O)CN(CCSC)C(=O)[C@H](Cc1ccc(O)cc1)NC(=O)[C@H](CCCCN)NC(=O)[C@@H](N)Cc1c[nH]c2ccccc12)C(C)C)C(N)=O [M peptoid] (H-WKY[X1]V[dM]-NH2)
Neutrophils [1]
  superoxide anion production in neutrophils: effectively promote superoxide anion production
FIG. 17
  Half-Life: 2.5 h
Neutrophils [3]
  degranulation activity of neutrophils: promoted the degranulation activity of neutrophils to the extent similar to the WKYMVm peptide

## CSCC[C@@H](CC(=O)N[C@H](C(=O)N[C@H](CCSC)C(N)=O)C(C)C)NC(=O)[C@H](Cc1ccc(O)cc1)NC(=O)[C@H](CCCCN)NC(=O)[C@@H](N)Cc1c[nH]c2ccccc12 [WKYMβVm]
Neutrophils [4]
  chemotactic migration of neutrophils: effectively induce chemotactic migration of neutrophils in a concentration-dependent manner
FPR1
  pEC50: 6.37
  increase in intracellular calcium ions through activation of FPR1 (in words): increase in calcium ions in a concentration-dependent manner was also observed
Neutrophils [1]
  superoxide anion production in neutrophils: induce superoxide anion production very effectively to a similar extent as the WKYMVm peptide
Neutrophils [5]
  calcium ion-increasing effect in neutrophils: highly induced
[2]; [7]
  degradation half-life / ex vivo stability compared to the WKYMVm peptide (in words): half-life similar to that of the WKYMVm peptide
FPR2
  pEC50: 7.86
  increase in intracellular calcium ions through activation of FPR2 (in words): increase in calcium ions in a concentration-dependent manner was observed
Neutrophils [3]
  degranulation activity of neutrophils: induced the degranulation activity of neutrophils very effectively to a similar extent as the WKYMVm peptide

## CSCC[C@H](NC(=O)C[C@H](Cc1ccc(O)cc1)NC(=O)[C@H](CCCCN)NC(=O)[C@@H](N)Cc1c[nH]c2ccccc12)C(=O)N[C@H](C(=O)N[C@H](CCSC)C(N)=O)C(C)C [WKYβMVm]
Neutrophils [4]
  chemotactic migration of neutrophils: effectively induce chemotactic migration of neutrophils in a concentration-dependent manner
FPR1
  pEC50: 6.12
  increase in intracellular calcium ions through activation of FPR1 (in words): increase in calcium ions in a concentration-dependent manner was also observed
Neutrophils [1]
  superoxide anion production in neutrophils: induce superoxide anion production very effectively to a similar extent as the WKYMVm peptide
Neutrophils [5]
  calcium ion-increasing effect in neutrophils: highly induced
[2]; [7]
  degradation half-life / ex vivo stability compared to the WKYMVm peptide (in words): half-life similar to that of the WKYMVm peptide
FPR2
  pEC50: 7.86
  increase in intracellular calcium ions through activation of FPR2 (in words): increase in calcium ions in a concentration-dependent manner was observed
Neutrophils [3]
  degranulation activity of neutrophils: induced the degranulation activity of neutrophils very effectively to a similar extent as the WKYMVm peptide

## CSCC[C@@H](CC(=O)N[C@H](C(=O)N[C@H](CCSC)C(N)=O)C(C)C)NC(=O)C[C@H](Cc1ccc(O)cc1)NC(=O)[C@H](CCCCN)NC(=O)[C@@H](N)Cc1c[nH]c2ccccc12 [WKYβMβVm]
Neutrophils [4]
  effect of enhancing neutrophil mobility, compared with the WKYMVm peptide: maintained similar activity to the WKYMVm peptide
Neutrophils [1]
  superoxide anion production in neutrophils: effectively promoted superoxide anion production
Neutrophils [5]
  calcium ion-increasing effect in neutrophils: highly induced
[2]; [7]
  degradation half-life / ex vivo stability compared to the WKYMVm peptide (in words): improved ex vivo stability
Neutrophils [3]
  degranulation activity of neutrophils: effectively promoted the degranulation activity of neutrophils

## CSCC[C@H](NC(=O)[C@H](Cc1ccc(O)cc1)NC(=O)C[C@H](CCCCN)NC(=O)[C@@H](N)Cc1c[nH]c2ccccc12)C(=O)N[C@H](C(=O)N[C@H](CCSC)C(N)=O)C(C)C [WKβYMVm]
Neutrophils [4]
  chemotactic migration of neutrophils: effectively induce chemotactic migration of neutrophils in a concentration-dependent manner
FPR1
  pEC50: 6.58
  increase in intracellular calcium ions through activation of FPR1 (in words): increase in intracellular calcium ions was induced
Neutrophils [1]
  superoxide anion production in neutrophils: induce superoxide anion production very effectively to a similar extent as the WKYMVm peptide
Neutrophils [5]
  calcium ion-increasing effect in neutrophils: highly induced
[2]; [7]
  half-life increase compared to the WKYMVm peptide: about 1.9 times
FPR2
  increase in intracellular calcium ions through activation of FPR2 (in words): increase in calcium ions in a concentration-dependent manner was observed
Neutrophils [3]
  degranulation activity of neutrophils: induced the degranulation activity of neutrophils very effectively to a similar extent as the WKYMVm peptide

## CSCC[C@@H](CC(=O)N[C@H](C(=O)N[C@H](CCSC)C(N)=O)C(C)C)NC(=O)[C@H](Cc1ccc(O)cc1)NC(=O)C[C@H](CCCCN)NC(=O)[C@@H](N)Cc1c[nH]c2ccccc12 [WKβYMβVm]
Neutrophils [4]
  effect of enhancing neutrophil mobility, compared with the WKYMVm peptide: maintained similar activity to the WKYMVm peptide
Neutrophils [1]
  superoxide anion production in neutrophils: effectively promoted superoxide anion production
Neutrophils [5]
  calcium ion-increasing effect in neutrophils: highly induced
[2]; [7]
  degradation half-life / ex vivo stability compared to the WKYMVm peptide (in words): improved ex vivo stability
  half-life increase compared to the WKYMVm peptide: about 3.3 times
Neutrophils [3]
  degranulation activity of neutrophils: effectively promoted the degranulation activity of neutrophils

## CSCC[C@H](NC(=O)C[C@H](Cc1ccc(O)cc1)NC(=O)C[C@H](CCCCN)NC(=O)[C@@H](N)Cc1c[nH]c2ccccc12)C(=O)N[C@H](C(=O)N[C@H](CCSC)C(N)=O)C(C)C [WKβYβMVm]
Neutrophils [4]
  effect of enhancing neutrophil mobility, compared with the WKYMVm peptide: slight decrease in activity
FPR1
  pEC50: 5.61
  increase in intracellular calcium ions through activation of FPR1 (in words): activated
Neutrophils [1]
  superoxide anion production in neutrophils: effectively promoted superoxide anion production
Neutrophils [5]
  calcium ion-increasing effect in neutrophils: highly induced
FPR2
  pEC50: 7.11
  increase in intracellular calcium ions through activation of FPR2 (in words): activated
Neutrophils [3]
  degranulation activity of neutrophils: effectively promoted the degranulation activity of neutrophils

## CSCC[C@@H](CC(=O)N[C@H](C(=O)N[C@H](CCSC)C(N)=O)C(C)C)NC(=O)C[C@H](Cc1ccc(O)cc1)NC(=O)C[C@H](CCCCN)NC(=O)[C@@H](N)Cc1c[nH]c2ccccc12 [WKβYβMβVm]
Neutrophils [1]
  superoxide anion production in neutrophils: did not induce superoxide anion production
Neutrophils [5]
  calcium ion-increasing effect in neutrophils: highly induced
[2]; [6]
  Half-Life: > 24 h
Neutrophils [3]
  degranulation activity of neutrophils: did not induce the degranulation activity of neutrophils

## WKYMβVm (βM)
【FIG 16】
  Half-Life: 2.4 h

## WKYβMVm (βY)
【FIG 16】
  Half-Life: 2.1 h

## WKβYMVm (βK)
【FIG 16】
  Half-Life: 4.9 h

## WKβYMβVm (βKβM)
【FIG 16】
  Half-Life: 8.7 h
